In the NIST ThermoML archive (doi:10.1021/je049671t):

Test: xn = mol fraction of the nth substance listed
Conditions: Liquid, Vibrating tube method

CC(C)C [2-methylpropane] + CCCC
Conditions	mass density [kg/m3]
240 K, 468.1 kPa, x2 = 0.5	626.35
240 K, 481.6 kPa, x2 = 0.25	621.79
240 K, 499 kPa, x2 = 0.75	631.33
240 K, 989.5 kPa, x2 = 0.5	626.9
240 K, 999.5 kPa, x2 = 0.25	622.36
240 K, 1001 kPa, x2 = 0.75	631.85
240 K, 1472.5 kPa, x2 = 0.5	627.41
240 K, 1500.2 kPa, x2 = 0.75	632.38
240 K, 1503.1 kPa, x2 = 0.25	622.9
240 K, 1962.6 kPa, x2 = 0.5	627.92
240 K, 2001.8 kPa, x2 = 0.25	623.43
240 K, 2011.4 kPa, x2 = 0.75	632.88
240 K, 2468.8 kPa, x2 = 0.5	628.43
240 K, 2493.8 kPa, x2 = 0.25	623.95
240 K, 2505.1 kPa, x2 = 0.75	633.43
240 K, 2976.4 kPa, x2 = 0.5	628.95
240 K, 2987.3 kPa, x2 = 0.25	624.47
240 K, 3003.9 kPa, x2 = 0.75	633.91
240 K, 3446 kPa, x2 = 0.5	629.43
240 K, 3481.8 kPa, x2 = 0.25	624.99
240 K, 3507.2 kPa, x2 = 0.75	634.38
240 K, 3970.1 kPa, x2 = 0.25	625.5
240 K, 3982.7 kPa, x2 = 0.5	629.98
240 K, 4015.3 kPa, x2 = 0.75	634.92
240 K, 4467.2 kPa, x2 = 0.5	630.47
240 K, 4485.6 kPa, x2 = 0.25	626.03
240 K, 4509.6 kPa, x2 = 0.75	635.35
240 K, 4983.6 kPa, x2 = 0.5	630.99
240 K, 5011.3 kPa, x2 = 0.75	635.85
240 K, 5024.9 kPa, x2 = 0.25	626.58
240 K, 5486.4 kPa, x2 = 0.5	631.5
240 K, 5515.8 kPa, x2 = 0.75	636.31
240 K, 5519.2 kPa, x2 = 0.25	627.11
240 K, 5981.2 kPa, x2 = 0.5	631.99
240 K, 6023.5 kPa, x2 = 0.75	636.82
240 K, 6067.5 kPa, x2 = 0.25	627.64
240 K, 6486.1 kPa, x2 = 0.5	632.5
240 K, 6492.4 kPa, x2 = 0.75	637.29
240 K, 6517.4 kPa, x2 = 0.25	628.1
240 K, 6977 kPa, x2 = 0.25	628.56
240 K, 6981 kPa, x2 = 0.5	632.99
240 K, 6991.5 kPa, x2 = 0.75	637.75
260 K, 496.3 kPa, x2 = 0.75	610.36
260 K, 503.7 kPa, x2 = 0.25	600.66
260 K, 503.9 kPa, x2 = 0.5	605.31
260 K, 979.3 kPa, x2 = 0.25	601.29
260 K, 993.2 kPa, x2 = 0.75	610.92
260 K, 1011.2 kPa, x2 = 0.5	605.96
260 K, 1489.5 kPa, x2 = 0.75	611.52
260 K, 1490.8 kPa, x2 = 0.25	601.97
260 K, 1508.9 kPa, x2 = 0.5	606.59
260 K, 2002.5 kPa, x2 = 0.75	612.18
260 K, 2003.1 kPa, x2 = 0.25	602.64
260 K, 2010.9 kPa, x2 = 0.5	607.22
260 K, 2507.6 kPa, x2 = 0.5	607.84
260 K, 2510.1 kPa, x2 = 0.75	612.77
260 K, 2511.6 kPa, x2 = 0.25	603.29
260 K, 2993.6 kPa, x2 = 0.5	608.43
260 K, 2999.7 kPa, x2 = 0.25	603.92
260 K, 3016.5 kPa, x2 = 0.75	613.4
260 K, 3495.3 kPa, x2 = 0.75	613.93
260 K, 3505.2 kPa, x2 = 0.25	604.56
260 K, 3514 kPa, x2 = 0.5	609.08
260 K, 3991.1 kPa, x2 = 0.5	609.66
260 K, 4009.7 kPa, x2 = 0.75	614.5
260 K, 4014.1 kPa, x2 = 0.25	605.19
260 K, 4508.9 kPa, x2 = 0.5	610.27
260 K, 4519.2 kPa, x2 = 0.75	615.15
260 K, 4521 kPa, x2 = 0.25	605.82
260 K, 5018.2 kPa, x2 = 0.75	615.65
260 K, 5023.4 kPa, x2 = 0.25	606.44
260 K, 5026.4 kPa, x2 = 0.5	610.89
260 K, 5506.4 kPa, x2 = 0.25	607.02
260 K, 5512.2 kPa, x2 = 0.75	616.21
260 K, 5517.9 kPa, x2 = 0.5	611.47
260 K, 6004.4 kPa, x2 = 0.75	616.79
260 K, 6023 kPa, x2 = 0.5	612.08
260 K, 6028.5 kPa, x2 = 0.25	607.65
260 K, 6519.2 kPa, x2 = 0.25	608.25
260 K, 6526.2 kPa, x2 = 0.75	617.32
260 K, 6531.1 kPa, x2 = 0.5	612.67
260 K, 6987.3 kPa, x2 = 0.5	613.2
260 K, 7000.3 kPa, x2 = 0.25	608.81
260 K, 7024.3 kPa, x2 = 0.75	617.88
280 K, 491.4 kPa, x2 = 0.25	578.14
280 K, 494.5 kPa, x2 = 0.75	588.49
280 K, 514.1 kPa, x2 = 0.5	583.32
280 K, 997.4 kPa, x2 = 0.5	584.09
280 K, 997.5 kPa, x2 = 0.25	578.99
280 K, 997.9 kPa, x2 = 0.75	589.24
280 K, 1496 kPa, x2 = 0.25	579.79
280 K, 1499.8 kPa, x2 = 0.75	590.03
280 K, 1515.6 kPa, x2 = 0.5	584.89
280 K, 1990.8 kPa, x2 = 0.5	585.62
280 K, 1991.8 kPa, x2 = 0.75	590.76
280 K, 2009.2 kPa, x2 = 0.25	580.63
280 K, 2501 kPa, x2 = 0.75	591.51
280 K, 2510.6 kPa, x2 = 0.5	586.43
280 K, 2512.7 kPa, x2 = 0.25	581.42
280 K, 3001.9 kPa, x2 = 0.75	592.24
280 K, 3016.2 kPa, x2 = 0.5	587.2
280 K, 3023 kPa, x2 = 0.25	582.23
280 K, 3506.9 kPa, x2 = 0.25	582.98
280 K, 3511.3 kPa, x2 = 0.75	592.97
280 K, 3532.6 kPa, x2 = 0.5	587.97
280 K, 4008 kPa, x2 = 0.25	583.74
280 K, 4010.5 kPa, x2 = 0.75	593.64
280 K, 4012.8 kPa, x2 = 0.5	588.67
280 K, 4502.1 kPa, x2 = 0.75	594.34
280 K, 4504.4 kPa, x2 = 0.25	584.53
280 K, 4508.3 kPa, x2 = 0.5	589.4
280 K, 4994.2 kPa, x2 = 0.75	595.02
280 K, 5006.3 kPa, x2 = 0.25	585.27
280 K, 5025.7 kPa, x2 = 0.5	590.15
280 K, 5479.3 kPa, x2 = 0.5	590.82
280 K, 5523.8 kPa, x2 = 0.25	586.04
280 K, 5525.5 kPa, x2 = 0.75	595.77
280 K, 5942.8 kPa, x2 = 0.75	596.37
280 K, 5993.3 kPa, x2 = 0.5	591.55
280 K, 6024.7 kPa, x2 = 0.25	586.78
280 K, 6475.5 kPa, x2 = 0.75	597.09
280 K, 6510.8 kPa, x2 = 0.25	587.5
280 K, 6528.5 kPa, x2 = 0.5	592.3
280 K, 6953.9 kPa, x2 = 0.5	592.89
280 K, 6984.1 kPa, x2 = 0.25	588.18
280 K, 7039.4 kPa, x2 = 0.75	597.8
300 K, 312 kPa, x2 = 0.5	559.4
300 K, 502.9 kPa, x2 = 0.25	554.17
300 K, 505.7 kPa, x2 = 0.75	565.16
300 K, 510.2 kPa, x2 = 0.5	559.82
300 K, 983.9 kPa, x2 = 0.5	560.78
300 K, 999.4 kPa, x2 = 0.25	555.23
300 K, 1002.4 kPa, x2 = 0.75	566.11
300 K, 1493 kPa, x2 = 0.75	567.04
300 K, 1497.1 kPa, x2 = 0.25	556.26
300 K, 1509.8 kPa, x2 = 0.5	561.83
300 K, 1992.8 kPa, x2 = 0.5	562.77
300 K, 1997.4 kPa, x2 = 0.25	557.29
300 K, 2007.5 kPa, x2 = 0.75	568
300 K, 2498.6 kPa, x2 = 0.25	558.33
300 K, 2510.2 kPa, x2 = 0.75	568.9
300 K, 2513.9 kPa, x2 = 0.5	563.78
300 K, 2995.9 kPa, x2 = 0.75	569.79
300 K, 3011.4 kPa, x2 = 0.5	564.72
300 K, 3014 kPa, x2 = 0.25	559.36
300 K, 3476.1 kPa, x2 = 0.5	565.59
300 K, 3483.6 kPa, x2 = 0.75	570.68
300 K, 3510.6 kPa, x2 = 0.25	560.33
300 K, 3988.4 kPa, x2 = 0.5	566.54
300 K, 4007.7 kPa, x2 = 0.25	561.28
300 K, 4013.5 kPa, x2 = 0.75	571.62
300 K, 4453.4 kPa, x2 = 0.5	567.4
300 K, 4467 kPa, x2 = 0.75	572.38
300 K, 4513.9 kPa, x2 = 0.25	562.25
300 K, 4997.8 kPa, x2 = 0.75	573.31
300 K, 5016.3 kPa, x2 = 0.25	563.17
300 K, 5026.1 kPa, x2 = 0.5	568.4
300 K, 5472.7 kPa, x2 = 0.5	569.19
300 K, 5473.2 kPa, x2 = 0.75	574.11

mass density [kg/m3]
Conditions	240 K	260 K	280 K
x2 = 0.25	621.33	600.04	577.61
x2 = 0.5	625.96	604.76	582.79
x2 = 0.75	630.89	609.84	588.07
